{"source": "ChEMBL document CHEMBL4665869", "about": "“New thiazolopyrimidine as anticancer agents: Synthesis, biological evaluation, DNA binding, molecular modeling and ADMET study” (Bioorg Med Chem Lett, 2020)", "key": {"HOP-92": {"system": "HOP-92", "test": "Growth inhibition of human HOP-92 cells at 10 uM relative to control", "assay_type": "functional"}, "K562": {"system": "K562", "test": "Growth inhibition of human K562 cells at 10 uM relative to control", "assay_type": "functional", "conditions": "read-out: GI"}, "TK-10": {"system": "TK-10", "test": "Growth inhibition of human TK-10 cells at 10 uM relative to control", "assay_type": "functional"}, "SNB-75": {"system": "SNB-75", "test": "Growth inhibition of human SNB-75 cells at 10 uM relative to control", "assay_type": "functional", "conditions": "read-out: GI"}, "OVCAR-8": {"system": "OVCAR-8", "test": "Growth inhibition of human OVCAR-8 cells at 10 uM relative to control", "assay_type": "functional", "conditions": "read-out: GI"}, "SF-295": {"system": "SF-295", "test": "Growth inhibition of human SF-295 cells at 10 uM relative to control", "assay_type": "functional"}, "SK-MEL-5": {"system": "SK-MEL-5", "test": "Growth inhibition of human SK-MEL-5 cells at 10 uM relative to control", "assay_type": "functional"}, "DNA": {"target": "DNA", "test": "Displacement of methyl green from DNA (unknown origin) assessed as DNA intercalation after 24 hrs by colorimetric assay", "assay_type": "nucleic-acid assay"}, "MDA-MB-231": {"system": "MDA-MB-231", "test": "Growth inhibition of human MDA-MB-231 cells at 10 uM relative to control", "assay_type": "functional"}, "HCT-116": {"system": "HCT-116", "test": "Growth inhibition of human HCT-116 cells at 10 uM relative to control", "assay_type": "functional"}, "Leukemia cell": {"system": "Leukemia cell", "test": "Growth inhibition of human leukemia cancer cells", "assay_type": "functional"}, "[1]": {"test": "Growth inhibition of human renal cancer cells", "assay_type": "functional", "conditions": "Renal cancer cell line"}, "NCI/ADR-RES": {"system": "NCI/ADR-RES", "test": "Growth inhibition of human NCI/ADR-RES cells at 10 uM relative to control", "assay_type": "functional", "conditions": "read-out: GI"}, "SNB-19": {"system": "SNB-19", "test": "Growth inhibition of human SNB-19 cells at 10 uM relative to control", "assay_type": "functional", "conditions": "read-out: GI"}, "[2]": {"conditions": "read-out: LC50 (the source's name)"}}, "note": "Activity calls are given as the source filed them. The rule behind the calls is not given here."}
{"smiles": "COc1cc(/C=C/C2=CC(c3cc(OC)c(OC)c(OC)c3)N3C=C(C)SC3=N2)cc(OC)c1OC", "note": "(stereo not drawn)", "values": [{"measurement": "growth inhibition (GI)", "setting": "HOP-92", "result": "Active"}, {"measurement": "inhibition of growth at 10 µM", "setting": "K562", "result": 97.8, "unit": "%"}, {"measurement": "growth inhibition (GI)", "setting": "TK-10", "result": "Active"}, {"measurement": "inhibition of growth at 10 µM", "setting": "SNB-75", "result": 75.6, "unit": "%"}, {"measurement": "inhibition of growth at 10 µM", "setting": "OVCAR-8", "result": 91.9, "unit": "%"}, {"measurement": "growth inhibition (GI)", "setting": "SF-295", "result": "Active"}, {"measurement": "growth inhibition (GI)", "setting": "SK-MEL-5", "result": "Active"}, {"measurement": "IC50", "setting": "DNA", "result": 36.13, "unit": "µg/mL"}, {"measurement": "growth inhibition (GI)", "setting": "MDA-MB-231", "result": "Active"}, {"measurement": "growth inhibition (GI)", "setting": "HCT-116", "result": "Active"}, {"measurement": "GI50", "setting": "Leukemia cell", "result": 430, "unit": "nM"}, {"measurement": "TGI", "setting": "Leukemia cell", "result": 61.9, "unit": "µM"}, {"measurement": "CC50", "setting": "Leukemia cell; [2]", "result": "> 100", "unit": "µM"}, {"measurement": "GI50", "setting": "[1]", "result": 1490, "unit": "nM"}, {"measurement": "TGI", "setting": "[1]", "result": 4.38, "unit": "µM"}, {"measurement": "CC50", "setting": "[1]; [2]", "result": 54.7, "unit": "µM"}, {"measurement": "inhibition of growth at 10 µM", "setting": "NCI/ADR-RES", "result": 80.6, "unit": "%"}, {"measurement": "inhibition of growth at 10 µM", "setting": "SNB-19", "result": 66.5, "unit": "%"}]}
